Experimental data as given in patent publication US11319289B2, “5-hydroxy pyridine-based compound for use as P2X1 and P2X3 receptor antagonist and pharmaceutical composition comprising same” (GWANGJU INSTITUTE OF SCIENCE AND TECHNOLOGY, priority 2017, dated 2022).

Tests used:
[1] = target: T1, rP2X2/3 receptors (Rattus norvegicus, UniProt P49653+P49654); experiment: Antagonistic effect for heterologous rP2X2/3 receptors; type: cell-based; details: FIG. 2
T1 sequence (P49653 1-472): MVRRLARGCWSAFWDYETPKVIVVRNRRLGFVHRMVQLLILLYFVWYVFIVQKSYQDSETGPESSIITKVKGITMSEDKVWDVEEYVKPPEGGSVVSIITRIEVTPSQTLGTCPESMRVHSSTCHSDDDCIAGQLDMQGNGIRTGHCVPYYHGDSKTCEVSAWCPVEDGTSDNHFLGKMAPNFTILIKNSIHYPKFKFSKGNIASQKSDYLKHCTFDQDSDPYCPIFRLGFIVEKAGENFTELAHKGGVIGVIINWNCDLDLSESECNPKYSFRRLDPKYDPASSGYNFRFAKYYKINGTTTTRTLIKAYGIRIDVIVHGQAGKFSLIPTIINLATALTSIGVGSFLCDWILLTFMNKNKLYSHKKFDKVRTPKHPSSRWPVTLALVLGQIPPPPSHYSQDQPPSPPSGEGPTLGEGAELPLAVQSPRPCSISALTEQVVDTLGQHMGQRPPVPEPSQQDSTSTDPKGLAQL
T1 sequence (P49654 1-397): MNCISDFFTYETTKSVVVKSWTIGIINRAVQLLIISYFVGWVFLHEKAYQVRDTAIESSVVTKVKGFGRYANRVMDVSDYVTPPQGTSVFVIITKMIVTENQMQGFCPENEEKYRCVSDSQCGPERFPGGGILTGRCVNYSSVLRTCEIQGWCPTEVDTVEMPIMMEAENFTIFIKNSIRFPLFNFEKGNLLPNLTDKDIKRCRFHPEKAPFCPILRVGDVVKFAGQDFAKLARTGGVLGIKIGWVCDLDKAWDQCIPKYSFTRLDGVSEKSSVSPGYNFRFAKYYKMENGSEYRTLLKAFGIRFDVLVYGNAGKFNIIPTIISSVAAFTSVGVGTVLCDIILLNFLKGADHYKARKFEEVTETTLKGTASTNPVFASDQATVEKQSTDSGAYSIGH
From the text: FIGS. 2a to 2c show the antagonistic activity of Compound 29 of the present invention for P2X3 and P2X2/3 receptors (2a: hP2X3R, 2b: […]).

[2] = target: T2, CYP450 2C9 (Homo sapiens, UniProt P11712); experiment: CYP inhibition assay (Vivid fluorometric), 2C9; type: biochemical; details: 1 μM in Table 5
T2 construct: purchased Invitrogen
T2 sequence (P11712 whole entry): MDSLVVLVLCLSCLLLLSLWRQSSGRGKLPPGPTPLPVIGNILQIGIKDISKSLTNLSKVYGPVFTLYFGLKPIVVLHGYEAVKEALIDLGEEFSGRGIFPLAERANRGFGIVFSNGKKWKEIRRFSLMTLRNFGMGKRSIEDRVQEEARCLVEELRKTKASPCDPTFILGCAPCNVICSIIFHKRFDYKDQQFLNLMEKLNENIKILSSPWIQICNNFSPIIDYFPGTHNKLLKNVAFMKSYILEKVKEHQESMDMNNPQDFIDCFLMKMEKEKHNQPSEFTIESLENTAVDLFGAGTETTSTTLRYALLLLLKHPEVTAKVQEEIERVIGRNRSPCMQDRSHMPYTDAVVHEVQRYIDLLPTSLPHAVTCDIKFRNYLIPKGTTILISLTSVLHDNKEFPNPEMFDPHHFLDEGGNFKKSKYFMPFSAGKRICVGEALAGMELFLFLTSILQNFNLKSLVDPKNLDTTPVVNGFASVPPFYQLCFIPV
Method: CYP450 (1A2, 2C9, 3A4) enzyme assay was performed by a fluorometric assay using a Vivid® CYP450 screening kit (Invitrogen, USA, CA) in a 96-well black plate according to manufacturer's instructions with some modifications. The assay was performed at room temperature, and the final assay volume was 100 μL. […]
A master pre-mixture (enzyme (0.5 nmol recombinant human CYP450 enzyme)/NADP regeneration solution (333 mM glucose-6-phosphate dissolved, 30 U/mL glucose-6-phosphate dehydrogenase in 100 mM KH2PO4 solution at pH 8.0)) was prepared as a CYP450 reaction buffer (200 mM KH2PO4, pH 8.0). The master pre-mixture was added to each well of the 96 well plate, followed by the vehicle DMSO (control) and test compounds, and the mixture was preincubated for 10 minutes in the plate for background reading. Subsequently, the enzyme reaction was immediately initiated through the addition of CYP450 substrate/NADP^+ mixture. After incubation for 40 minutes, the fluorescence of the product was measured with a CHAMELEON™ multi-technology plate reader (2C9, 3A4: excitation wavelength of 530 nm and emission wavelength of 590 nm, 1A2: excitation wavelength of 415 nm and emission wavelength of 460 nm). The effect of the test compounds on CYP450 (1A2, 2C9, 3A4) was expressed as the percentage of enzyme activity.

- antagonistic effect for heterologous rP2X2/3 receptors [1]: showed an antagonistic effect
- CYP450 inhibition, 2C9 isozyme [2]: weak inhibitory effect
SMILES: CCCc1nc(Cc2cccc(Oc3ccccc3)c2)c(C)c(C(=O)O)c1O [Compound 29, 3-Hydroxy-5-methyl-6-(3-phenoxybenzyl)-2-propylisonicotinic acid]
